Measured values as given in article PMC5021751, “Discovery of DNA dyes Hoechst 34580 and 33342 as good candidates for inhibiting amyloid beta formation: in silico and in vitro study” (Journal of Computer-Aided Molecular Design, 2016).
Like-named read-outs stand apart in the source and are kept apart here.

Target: T1, Aβ42 (amyloid beta) (Homo sapiens, UniProt P05067)
T1 construct: gene APP
Test: Thioflavin T fibrillization assay with purified Aβ[…] peptide
Type: biochemical

T1 sequence (P05067 672-713 limits assumed): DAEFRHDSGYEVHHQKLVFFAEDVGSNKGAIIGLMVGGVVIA

| IC50 (read-out: IC50) | SMILES | IC50 |
| --- | --- | --- |
| 680 ± 50 nM | CCOc1ccc(-c2nc3cc(-c4nc5cc(N6CCN(C)CC6)ccc5[nH]4)ccc3[nH]2)cc1 [Hoechst 33342] |  |
|  | CN1CCN(c2ccc3[nH]c(-c4ccc5[nH]c(-c6ccc(N(C)C)cc6)nc5c4)nc3c2)CC1 [Hoechst 34580] | 860 ± 50 nM |
